According to ChEMBL document CHEMBL1770065, “Discovery of a clinical candidate from the structurally unique dioxa-bicyclo[3.2.1]octane class of sodium-dependent glucose cotransporter 2 inhibitors” (J Med Chem, 2011):

Experiments:
[1] = Apparent intrinsic clearance in human hepatocytes assessed per million of cells; type: ADME, cell-based, Liver, Hepatocyte
[2] = Lipophilicity, log D of the compound; type: physicochemical; conditions: octanol/water
[3] = Apparent intrinsic clearance in human liver microsomes assessed per mg of protein; type: ADME, Microsome
[4] = Half life in Sprague-Dawley rat at 2 mg/kg, iv; type: ADME, organism-based; design: dose 2 mg/kg, route intravenous; conditions: in vivo
[5] = target: T1, Sodium/glucose cotransporter 2 (Homo sapiens, UniProt P31639); assay: Inhibition of human SGLT2 expressed in CHO cells assessed as inhibition of methyl alpha-D-glucopyranoside uptake after 1 hr; type: cell-based
T1 sequence (P31639 whole entry): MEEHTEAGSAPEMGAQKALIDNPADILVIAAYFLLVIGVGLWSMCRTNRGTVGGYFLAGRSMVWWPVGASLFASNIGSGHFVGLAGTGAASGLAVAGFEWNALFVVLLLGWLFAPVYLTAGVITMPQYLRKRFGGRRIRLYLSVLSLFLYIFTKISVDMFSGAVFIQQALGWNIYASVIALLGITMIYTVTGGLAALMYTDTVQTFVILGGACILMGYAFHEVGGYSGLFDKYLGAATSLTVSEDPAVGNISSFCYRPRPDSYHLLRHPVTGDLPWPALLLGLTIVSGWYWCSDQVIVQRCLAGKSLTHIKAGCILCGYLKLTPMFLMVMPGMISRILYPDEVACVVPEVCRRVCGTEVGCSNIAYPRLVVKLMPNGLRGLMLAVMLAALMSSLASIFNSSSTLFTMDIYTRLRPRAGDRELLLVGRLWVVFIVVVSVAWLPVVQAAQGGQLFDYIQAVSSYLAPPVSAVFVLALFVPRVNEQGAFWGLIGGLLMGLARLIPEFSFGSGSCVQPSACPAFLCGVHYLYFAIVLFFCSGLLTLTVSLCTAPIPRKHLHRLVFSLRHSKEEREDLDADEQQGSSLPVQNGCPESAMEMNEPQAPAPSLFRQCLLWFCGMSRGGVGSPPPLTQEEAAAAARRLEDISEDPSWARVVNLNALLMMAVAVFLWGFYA

[6] = target: T2, Sodium/glucose cotransporter 1 (Homo sapiens, UniProt P13866); assay: Inhibition of human SGLT1 expressed in CHO cells assessed as inhibition of methyl alpha-D-glucopyranoside uptake after 1 hr; type: cell-based
T2 sequence (P13866 whole entry): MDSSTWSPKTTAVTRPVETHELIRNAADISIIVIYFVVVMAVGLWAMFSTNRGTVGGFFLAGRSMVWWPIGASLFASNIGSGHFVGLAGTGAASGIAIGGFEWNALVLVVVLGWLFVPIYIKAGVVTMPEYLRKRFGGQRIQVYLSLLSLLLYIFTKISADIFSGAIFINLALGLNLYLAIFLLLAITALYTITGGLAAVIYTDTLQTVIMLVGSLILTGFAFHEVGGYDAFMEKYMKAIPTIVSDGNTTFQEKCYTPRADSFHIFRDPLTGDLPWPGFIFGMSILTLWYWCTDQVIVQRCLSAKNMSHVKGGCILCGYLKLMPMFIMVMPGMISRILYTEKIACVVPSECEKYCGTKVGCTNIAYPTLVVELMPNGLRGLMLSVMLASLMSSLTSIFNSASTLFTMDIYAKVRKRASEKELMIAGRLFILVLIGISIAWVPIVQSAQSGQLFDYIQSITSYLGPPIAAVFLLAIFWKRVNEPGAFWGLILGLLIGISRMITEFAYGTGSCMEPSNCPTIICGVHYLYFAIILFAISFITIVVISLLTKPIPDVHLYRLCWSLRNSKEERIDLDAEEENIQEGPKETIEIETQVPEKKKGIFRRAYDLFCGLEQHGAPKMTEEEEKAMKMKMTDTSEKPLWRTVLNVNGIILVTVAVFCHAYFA

Rattus norvegicus = assay: Hepatic clearance in Sprague-Dawley rat at 2 mg/kg, iv; type: ADME, organism-based, Liver; design: dose 2 mg/kg, route intravenous; conditions: in vivo
[7] = Renal clearance in Sprague-Dawley rat at 2 mg/kg, iv; type: ADME, organism-based, Kidney; design: dose 2 mg/kg, route intravenous; conditions: in vivo
Plasma [8] = assay: Fraction unbound in human plasma at 1000 ng/mL by equilibrium dialysis method; type: ADME, cell-free
Plasma [9] = assay: Fraction unbound in rat plasma at 1000 ng/mL by equilibrium dialysis method; type: ADME, cell-free

hepatocyte CLint [1] [µL/min/1e6 cells]	logD [2]	microsomal CLint [3] [µL/min/mg]	half-life [4] [h]	IC50 [5] [nM]	IC50 [6] [nM]	CL (Rattus norvegicus) [mL/min/kg]	CL renal [7] [mL/min/kg]	Fu (Plasma [8]) [%]	Fu (Plasma [9]) [%]	SMILES
< 2	3	< 9	–	–	–	–	–	–	–	COc1ccc(Cc2cc([C@@H]3O[C@H](CO)[C@@H](O)[C@H](O)[C@H]3O)ccc2Cl)cc1
2	3.2	9.2	1.6	0.882	–	–	–	–	–	COc1ccc(Cc2cc([C@]34OC[C@](CO)(O3)[C@@H](O)[C@H](O)[C@H]4O)ccc2Cl)cc1
2.3	3.9	15	–	43.1	> 10000	–	–	–	–	COc1ccc(Cc2cc([C@]34OC[C@](CO)(O3)[C@@H](O)[C@H](O)[C@@H]4O)ccc2Cl)cc1
2	3	8.9	–	1.11	958	–	–	–	–	CCOc1ccc(Cc2cc([C@]34OC[C@](CO)(O3)[C@@H](O)[C@H](O)[C@H]4O)ccc2C)cc1
–	3.8	–	–	89.9	> 10000	–	–	–	–	CCOc1ccc(Cc2cc([C@]34OC[C@](CO)(O3)[C@@H](O)[C@H](O)[C@@H]4O)ccc2Cl)cc1
< 2	3.2	32	–	–	–	–	–	–	–	CCc1ccc(Cc2cc([C@@H]3OC4(CNC4)[C@@H](O)[C@H](O)[C@H]3O)ccc2C)cc1
3.4	2.4	< 8	–	–	–	–	–	–	–	COc1ccc(Cc2cc([C@@H]3O[C@H](CO)[C@@H](O)[C@H](O)[C@H]3O)ccc2C)cc1
44	3	12	1.9	6.98	–	20.5	1.8	–	–	COc1ccc(Cc2cc([C@@H]3OC4(COC4)[C@@H](O)[C@H](O)[C@H]3O)ccc2C)cc1
2.1	2.6	< 8	–	1.07	506	–	–	20.6	18.6	COc1ccc(Cc2cc([C@]34OC[C@](CO)(O3)[C@@H](O)[C@H](O)[C@H]4O)ccc2C)cc1
